Data as given in patent publication US20100093624A1, “PEPTIDE THERAPEUTICS THAT BIND VEGF AND METHODS OF USE THEREOF” (Cosmix Therapeutics LLC, priority 2008, published 2010).
“Also recorded” adds a separate entry of the source. Values belong to the molecule of their own block, whether it stands above or below them. Non-standard residues stand in square brackets, D forms with d. Residues, ends and D or L forms follow the SMILES beside them. No end group written: not given here. PEG = not defined here

What was measured:
[1] = target: T1, VEGF165 (Homo sapiens, UniProt P15692); test: VEGF ELISA of biotin-tagged D-peptides; type: binding; conditions: VEGF165 coated wells, streptavidin/HRP detection
T1 construct: purchased
T1 sequence (P15692 27-191 isoform P15692-4 limits assumed): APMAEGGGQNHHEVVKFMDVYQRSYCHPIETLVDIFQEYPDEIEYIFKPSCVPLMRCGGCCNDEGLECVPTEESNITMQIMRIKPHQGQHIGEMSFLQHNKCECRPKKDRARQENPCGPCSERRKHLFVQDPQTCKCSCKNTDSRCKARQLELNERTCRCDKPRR
Protocol: An ELISA method was developed in which commercially available VEGF165 was coated into ELISA plate wells (MaxiSorb). Biotin-tagged D-peptides (or an anti-VEGF monoclonal antibody, BAF293, R & D Systems) were then added. After washing binding of peptides or antibody to VEGF was determined by treatment with a streptavidin/HRP conjugate which allows colorimetric detection of the presence of the biotin tagged peptides or antibody (see FIG. 3).

[2] = target: T2, rh-VEGF165 binding to Flt-1 (Homo sapiens, UniProt P15692); test: Receptor ELISA (Flt-1)
T2 sequence (P15692 27-191 isoform P15692-4 limits assumed): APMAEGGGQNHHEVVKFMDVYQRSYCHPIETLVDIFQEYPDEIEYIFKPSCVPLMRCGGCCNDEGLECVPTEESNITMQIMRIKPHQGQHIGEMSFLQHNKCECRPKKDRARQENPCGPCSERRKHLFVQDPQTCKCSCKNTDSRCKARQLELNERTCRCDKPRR
From the text: VEGF acts on two distinct receptors in-vivo, Flt-1 (VEGFR1) and KDR (VEGFR2). The majority of pro-angiogenic signaling appears to be mediated by KDR. Flt-1 binds to VEGF isoforms with a higher affinity than KDR and may serve a largely regulatory role in vivo. […] These studies have been extended using ELISA assays on VEGF Flt-1 binding. In this experiment a soluble fusion of Flt-1 was coated onto Costar ELISA plates. After blocking (2% BSA), solutions of rh-VEGF165 containing serial dilutions of peptide test articles were added. Detection was accomplished using a biotinylated anti-VEGF antibody in combination with a streptavidin-HRP conjugate. The results of the Flt-1 assay are shown in FIG. 6 along with previous results from the analogous KDR assay for comparison.

[3] = target: T3, VEGF165 binding to KDR (Homo sapiens, UniProt P15692); test: Receptor ELISA (KDR)
T3 sequence (P15692 27-191 isoform P15692-4 limits assumed): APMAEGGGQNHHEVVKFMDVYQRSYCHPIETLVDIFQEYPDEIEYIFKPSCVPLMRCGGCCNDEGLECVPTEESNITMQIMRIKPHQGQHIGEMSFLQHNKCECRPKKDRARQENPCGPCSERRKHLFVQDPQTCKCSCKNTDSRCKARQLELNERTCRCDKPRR

[4] = tested on: VEGF-dependent cell growth; test: VEGF-dependent cell growth assay; type: cell-based
[5] = target: T1, VEGF165; test: Equilibrium bead-binding assay; conditions: bead-bound peptide, silver-stained SDS-PAGE
Protocol: (§1) A quick, qualitative binding assay was devised in which biotin-tagged peptides are immobilized onto streptavidin-coated magnetic beads. The bead-bound peptides are then treated with VEGF (either synthetic or commercially available VEGF 165). After washing the beads are then boiled in denaturing buffer to release bound VEGF which is then detected by silver-stained SDS-PAGE gel (see FIG. 4).

[6] = target: T4, L-VEGF (Homo sapiens, UniProt P15692); test: Equilibrium bead-binding assay; conditions: bead-bound peptide, silver-stained SDS-PAGE
T4 construct: VEGF (8-50)-thioester; VEGF (51-101)-thioester; made in house; host or cells: chemical synthesis (Boc SPPS, ligation of two peptides, oxidative folding)
T4 sequence (P15692 214-315): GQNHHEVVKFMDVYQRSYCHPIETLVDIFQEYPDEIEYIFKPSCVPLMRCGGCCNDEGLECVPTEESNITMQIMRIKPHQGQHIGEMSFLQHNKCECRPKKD
Protocol: as §1

[7] = tested on: D-VEGF; test: Equilibrium bead-binding assay; conditions: bead-bound peptide, silver-stained SDS-PAGE
Protocol: as §1

[8] = tested on: HUVEC cells; test: HUVEC cell-proliferation assay; type: cell-based, human; conditions: for inhibition of HUVEC growth: tritium-labeled thymidine
From the text: Initial investigation into the biological activity of the peptides involved use of a HUVEC cell-proliferation assay. A contractor (ReliaTech, Braunschweig, Germany) with considerable experience in this assay was employed to carry it out. ReliaTech's assay employed a radiation-based system to detect cell growth by monitoring DNA synthesis using tritium-labeled thymidine.
In this assay, pregrown, starved HUVEC cells proliferate in response to exposure to VEGF or bFGF. Inhibition of VEGF activity will result in a measurable decrease in cell proliferation. […] The effects seen for other peptide sequences were attributed to the DMSO content of their stock solutions (DMSO was required to solubilize all peptides in this assay except for 07-D60).

[9] = tested on: D-VEGF; test: ELISA of L-peptides from affinity maturation selection; type: binding; conditions: 25 nM, also 5M, 100 nM, 50 nM and 5 nM
Protocol: FIG. 15 depicts an ELISA analysis of peptides deriving from sequences of the affinity maturation mRNA display selection at 25 nM. […] Then the plates were incubated with 25 nM of peptides 07-007, 07-071 and 07-072 respectively in HBS buffer for one hour at room temperature followed by 4× washes with HBS buffer. Detection with Streptavidin-Peroxidase stained with o-Phenylendiamin and H2O2 for 3 minutes.
Then the plates were incubated with either 5 μM or 100 nM of peptides 07-007, 07-071 and 07-072 respectively in HBS buffer for one hour at room temperature followed by 4× washes with HBS buffer. Detection with Streptavidin-Peroxidase stained with o-Phenylendiamin and H2O2 for 3 minutes.
Then the plates were incubated either with 50 nM or 5 nM of peptides 07-007, 07-071 and 07-072 respectively in HBS buffer for one hour at room temperature followed by 4× washes with HBS buffer. Detection with Streptavidin-Peroxidase stained with o-Phenylendiamin and H2O2 for 3 minutes.
Then the plates were incubated with 25 nM of peptides 07-007, 07-071 and 07-072 respectively in HBS buffer for one hour at room temperature followed by 4× washes with HBS buffer.

[10] = target: D-VEGF (synthetic VEGF receptor binding domain, residues 8-109, made of D-amino acids) (Homo sapiens (Human)) (UniProt P15692); test: judged from ELISA signals on coated D-VEGF at 5 nM to 5 uM peptide; reference 07-007

binding to VEGF165 [1]: bind tightly
binding to VEGF165 ([1]; listed as G2211/G2226): bind to VEGF165 selectively
Molecule: GVQEDVSSTLGSWVLLPFHRGTRLSVWVT (also: biotinylated form, place not given here) [G2211/2226]

Molecule: GNALHWVCASNICWRPPWAGRLWGLVRLT [Peptide G2257]
inhibition of VEGF binding to Flt-1 [2]: inhibition of VEGF binding; also recorded: inhibits binding
inhibition of VEGF binding to KDR ([3]; receptor ELISA): inhibition of VEGF binding; also recorded: capable of inhibiting VEGF binding to KDR; also recorded: inhibits binding

Molecule: NALHWVCASNICWRSPWAGRLWGLVRL [Peptide G2306]
inhibition in a VEGF-dependent cell growth assay [4]: effective dose-dependent inhibition

binding to commercially available VEGF 165 [5]: found to bind
binding to D-VEGF [7]: no detectable affinity
block of VEGF binding in the receptor ELISA ([3]; receptor not specified): does not appear to block VEGF binding
Molecule: CC(C)C[C@@H](NC(=O)[C@@H](CCCNC(=N)N)NC(=O)[C@H](NC(=O)CNC(=O)[C@@H](CCCNC(=N)N)NC(=O)[C@@H](Cc1c[nH]cn1)NC(=O)[C@@H](Cc1ccccc1)NC(=O)[C@H]1CCCN1C(=O)[C@@H](CC(C)C)NC(=O)[C@@H](CC(C)C)NC(=O)[C@H](NC(=O)[C@@H](Cc1c[nH]c2ccccc12)NC(=O)[C@@H](CO)NC(=O)CNC(=O)[C@@H](CC(C)C)NC(=O)[C@H](NC(=O)[C@@H](CO)NC(=O)[C@@H](CO)NC(=O)[C@H](NC(=O)[C@@H](CC(=O)O)NC(=O)[C@@H](CCC(=O)O)NC(=O)[C@@H](CCC(N)=O)NC(=O)[C@H](NC(=O)CN)C(C)C)C(C)C)[C@H](C)O)C(C)C)[C@H](C)O)C(=O)N[C@H](CO)C(=O)N[C@@H](C(=O)N[C@H](Cc1c[nH]c2ccccc12)C(=O)N[C@@H](C(=O)N[C@@H](C(N)=O)[C@H](C)O)C(C)C)C(C)C [Peptide G2226] (H-G[dV][dQ][dE][dD][dV][dS][dS][dT][dL]G[dS][dW][dV][dL][dL][dP][dF][dH][dR]G[dT][dR][dL][dS][dV][dW][dV][dT]-NH2; N-terminus and C-terminus assumed)
binding to VEGF165 [1]: bind tightly; also recorded: best affinity
binding to L-VEGF [6]: binds only to L-VEGF; also recorded: found to bind
activity in cell-based assays [8]: does not appear to be active

Molecule: H2N-SGSSSGSGSGNALHWVCASNICWRTPWAGQLWRLVRLT-PEG-Bio (H-SGSSSGSGSGNALHWVCASNICWRTPWAGQLWRLVRLT-{PEG-biotin}; cysteine pairing not given here; reading uncertain) [Peptide 07-072]
affinity towards D-VEGF in comparison to the non-matured sequence deriving from G2306 [9]: vast improvement

Molecule: Avastin: Genentech's anti-VEGF antibody [reference compound]
inhibition of HUVEC growth [8]: strong inhibition

Molecule: GNALHWVCASNICWRPPWAGRLWGLVRLT [Peptide 07-D60, a modification of G2257]
inhibition of HUVEC growth compared with Avastin ([8]; 10 micromolar peptide vs 67 nM Avastin): approaches that for 67 nM Avastin
inhibition of HUVEC growth [8]: inhibit HUVEC growth in a dose dependent manner; also recorded: inhibit HUVEC cell growth; also recorded: block HUVEC growth in a dose-dependent manner

fold improvement of affinity (against the non-mutated sequence 07-007) [10]: > 10 >=fold
Molecule: H-SGSSSGSGSGNALHWVCASNICWRTPWAGQLWRLVRLT-{PEG-biotin} (cysteine pairing not given here; reading uncertain) [Peptide 07-072 (L-form; variant carrying all three hot spot mutations)]
